Measurements published in patent US7538226B2, “(1S,5S)-3-(5,6-dichloro-3-pyridinyl)-3,6-diazabicyclo[3.2.0]heptane” (Abbott Laboratories, priority 2003, dated 2009).

Legend:
[1] = system: scopolamine-induced cognitive deficit; assay: Morris water maze, spatial discrimination version, scopolamine-induced cognitive deficit; assay type: in vivo, rat; details: about 0.001 to about 5 μmol/kg, 30 minutes prior to the test; scopolamine HBr 0.3 mg/kg i.p.
Procedure: Male, Long-Evans rats, 300-400 g, obtained from Charles River laboratories were used in this study. During two daily habituation sessions, rats are trained to find a visible escape platform in a pool (180 cm diameter and 60 cm high) filled to a depth of 37 cm with water made opaque with powdered milk. Water temperature is maintained at 26° C. On the second day of habituation training, latency to escape measures are obtained in order to assure that animals are assigned to groups without swim speed bias. For spatial discrimination training, two visible platforms, covered in aluminum foil, are present. The platforms remain in the same position (diagonal to each other) through 5 days of training. Only one of the platforms provides escape; the other, made of expanded polystyrene, will not support the animals' weight. Rats receive six trials/day, with start position changed from trial to trial. The number of contacts with the incorrect platform (errors) serves as the dependent variable.
A cognitive deficit, as measured by increased number of errors in the water maze test, is induced by i.p. administration of the muscarinic antagonist scopolamine·HBr (0.3 mg/kg), dosed 15 min prior to each daily discrimination training session (over five days total).

Solubility in water = assay type: physicochemical

Row | SMILES | effect on scopolamine-induced cognitive deficit in the water maze [1] | solubility (Solubility in water)
1 | Clc1cc(N2C[C@@H]3CN[C@@H]3C2)cnc1Cl [(1S,5S)-3-(5,6-Dichloropyridin-3-yl)-3,6-diaza-bicyclo[3.2.0]heptane] | reversed the cognitive deficit and normalized the performance of the animals in the water maze | 
2 | CC(=O)O.Clc1cc(N2C[C@@H]3CN[C@@H]3C2)cnc1Cl [Example 6, (1S,5S)-3-(5,6-Dichloro-pyridin-3-yl)-3,6-diaza-bicyclo[3.2.0]heptane acetate] |  | 13400 µg/mL
3 | Clc1cc(N2C[C@@H]3CN[C@@H]3C2)cnc1Cl.O=C(O)/C=C/C(=O)O [Example 10, (1S,5S)-3-(5,6-Dichloro-pyridin-3-yl)-3,6-diaza-bicyclo[3.2.0]heptane fumarate] |  | 2900 µg/mL
4 | CS(=O)(=O)O.Clc1cc(N2C[C@@H]3CN[C@@H]3C2)cnc1Cl [Example 8, (1S,5S)-3-(5,6-Dichloro-pyridin-3-yl)-3,6-diaza-bicyclo[3.2.0]heptane methanesulfonate] |  | > 50000 µg/mL
5 | Clc1cc(N2C[C@@H]3CN[C@@H]3C2)cnc1Cl.O=C(O)/C=C\C(=O)O [Example 9, (1S,5S)-3-(5,6-Dichloro-pyridin-3-yl)-3,6-diaza-bicyclo[3.2.0]heptane maleate] |  | 7500 µg/mL
